Test results reported in US10787696B2 (priority 2009, dated 2020).

Key:
Assay type in all cases: cell-based
[1] = system: synthetic promoter G5TO4 (tetracycline transcription silencer tTS); settings: 1 μg/ml tetracycline; culture medium two days post-transfection; HeLa-tTS
[2] = system: synthetic promoter G5TO4 (tetracycline transcription silencer tTS)
[3] = system: synthetic promoter G5TO4 (tetracycline transcription silencer tTS); settings: clone #32, 1 μg/ml tetracycline

CN(C)[C@@H]1C(O)=C(C(N)=O)C(=O)[C@@]2(O)C(O)=C3C(=O)c4c(O)cccc4[C@@](C)(O)[C@H]3C[C@@H]12 [tetracycline]
relative light units (RLU) with tetracycline vs. absence of tetracycline [1]: 16 fold
reporter activation by the addition of tetracycline [2]: more than 14 fold
reporter gene activation when tetracycline was added to the culture medium [3]: more than 200 fold
luciferase activity in medium of cells treated with tetracycline vs. not treated ([3]; 96-well microplate, one day): 200 fold
